Data taken from PubChem BioAssay AID1259411 (Chemical Carcinogenesis Research Information System (CCRIS), 2018).
Calls of active or inactive are those of the source. The rule behind the calls is not given here.

Test system: rodent carcinogenicity bioassays, tumor incidence
Assay: CCRIS carcinogenicity studies
Outline: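 Archive of carcinogenicity, mutagenicity, tumor promotion and tumor inhibition results drawn from journals, NCI reports and other sources, expert-reviewed; covers 1985-2011 and is no longer updated.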

Question: Which results are given for `[O]=[Cd]`?
Answer: carcinogen call (Species: HAMSTER, Strain/Sex: SYRIAN/MALE, Route: INHALATION, Dose: 0, 10 UG/M3 19 HR/D 5 D/WK FOR 65 WK FOR A TOTAL CADMIUM DOSE OF 0, 63 MG/M3 (STUDY DURATION: 113 WK), Dose: 0, 10 UG/M3 19 HR/D 5 D/WK FOR 65 WK FOR A TOTAL CADMIUM DOSE OF 0, 63 MG/M3 (STUDY DURATION: 113 WK)): inactive; negative; carcinogen call (Species: HAMSTER, Strain/Sex: SYRIAN/MALE, Route: INHALATION, Dose: 0, 90 UG/M3 8 HR/D 5 D/WK FOR 65 WK FOR A TOTAL CADMIUM DOSE OF 0, 216 MG/M3 (STUDY DURATION: 113 WK), Dose: 0, 90 UG/M3 8 HR/D 5 D/WK FOR 65 WK FOR A TOTAL CADMIUM DOSE OF 0, 216 MG/M3 (STUDY DURATION: 113 WK)): inactive; negative; carcinogen call (Species: HAMSTER, Strain/Sex: SYRIAN/MALE, Route: INHALATION, Dose: 0, 270 UG/M3 8 HR/D 5 D/WK FOR 53 WK FOR A TOTAL CADMIUM DOSE OF 0, 522 MG/M3 (STUDY DURATION: 70 WK), Dose: 0, 270 UG/M3 8 HR/D 5 D/WK FOR 53 WK FOR A TOTAL CADMIUM DOSE OF 0, 522 MG/M3 (STUDY DURATION: 70 WK)): inactive; negative; carcinogen call (Species: RAT, Strain/Sex: FEMALE, Route: SUBCUTANEOUS, Dose: 25 MG ONCE, Tumor Site: Type of Lesion: INJECTION SITE: SARCOMA): active; positive; carcinogen call (Species: RAT, Strain/Sex: FEMALE, Route: SUBCUTANEOUS, Dose: 25 MG, SINGLE DOSE, Tumor Site: Type of Lesion: INJECTION SITE): active; positive; carcinogen call (Species: RAT, Strain/Sex: WISTAR/FEMALE, Route: INHALATION, Dose: 0, 30 UG/M3 8 HR/D,5D/WK FOR 18 MO (STUDY DURATION: 18 MO)): inactive; negative; carcinogen call (Species: RAT, Strain/Sex: WISTAR/FEMALE, Route: INHALATION, Dose: 0, 30 UG/M3 CADMIUM OXIDE DUST 22 HR/D 7 D/WK FOR 18 MO (STUDY DURATION: 31 MO), Tumor Site: Type of Lesion: LUNG: TUMOR): active; positive; carcinogen call (Species: RAT, Strain/Sex: WISTAR/FEMALE, Route: INHALATION, Dose: 0, 30 UG/M3 DUST 22 HR/D 7 D/WK FOR 18 MO (STUDY DURATION: 31 MO), Tumor Site: Type of Lesion: LUNG: ALVEOLAR/BRONCHIOLAR ADENOMA, ADENOCARCINOMA, SQUAMOUS CELL CARCINOMA): active; positive; carcinogen call (Species: RAT, Strain/Sex: WISTAR/FEMALE, Route: INHALATION, Dose: 0, 30 UG/M3 OF CADMIUM OXIDE DUST 22 HR/D 7 D/WK FOR 18 MO (STUDY DURATION: 31 MO), Tumor Site: Type of Lesion: LUNG: ALVEOLAR/BRONCHIOLAR ADENOMA, ADENOCARCINOMA, SQUAMOUS CELL CARCINOMA): active; positive; carcinogen call (Species: RAT, Strain/Sex: WISTAR/FEMALE, Route: INHALATION, Dose: 0, 90 UG/M3 CADMIUM OXIDE DUST 22 HR/D 7 D/WK FOR 4 MO (STUDY DURATION: 31 MO), Tumor Site: Type of Lesion: LUNG: TUMOR): active; positive; carcinogen call (Species: RAT, Strain/Sex: WISTAR/FEMALE, Route: INHALATION, Dose: 0, 90 UG/M3 CADMIUM OXIDE DUST DISCONTINOUS EXPOSURE FOR 40 HR/WK FOR 6 MO (STUDY DURATION: 31 MO), Tumor Site: Type of Lesion: LUNG: TUMOR): active; positive; carcinogen call (Species: RAT, Strain/Sex: WISTAR/FEMALE, Route: INHALATION, Dose: 0, 90 UG/M3 DUST 8 HR/D 5 D/WK FOR 6 MO (STUDY DURATION: 31 MO), Tumor Site: Type of Lesion: LUNG: ADENOCARCINOMA, SQUAMOUS CELL CARCINOMA): active; positive; carcinogen call (Species: RAT, Strain/Sex: WISTAR/FEMALE, Route: INHALATION, Dose: 0, 90 UG/M3 DUST 22 HR/D 7 D/WK FOR 11 MO (STUDY DURATION: 31 MO), Tumor Site: Type of Lesion: LUNG: ALVEOLAR/BRONCHIOLAR ADENOMA, ADENOCARCINOMA, SQUAMOUS CELL CARCINOMA): active; positive; carcinogen call (Species: RAT, Strain/Sex: WISTAR/FEMALE, Route: INHALATION, Dose: 0, 90 UG/M3 OF CADMIUM OXIDE DUST 22 HR/D 7 D/WK FOR 11 MO (STUDY DURATION: 31 MO), Tumor Site: Type of Lesion: LUNG: ALVEOLAR/BRONCHIOLAR ADENOMA, ADENOCARCINOMA, SQUAMOUS CELL CARCINOMA): active; positive; carcinogen call (Species: RAT, Strain/Sex: WISTAR/FEMALE, Route: INHALATION, Dose: 0, 90 UG/M3 OF CADMIUM OXIDE DUST 40 HR/WK FOR 6 MO (STUDY DURATION: 31 MO)): inactive; negative; carcinogen call (Species: RAT, Strain/Sex: WISTAR/MALE, Route: INHALATION, Dose: 0, 10 UG/M3 CADMIUM OXIDE FUME 22 HR/D 7 D/WK FOR 18 MO (STUDY DURATION: 31 MO)): inactive; negative; carcinogen call (Species: RAT, Strain/Sex: WISTAR/MALE, Route: INHALATION, Dose: 0, 10 UG/M3 FUME 22 HR/D 7 D/WK FOR 18 MO (STUDY DURATION: 31 MO)): inactive; negative; carcinogen call (Species: RAT, Strain/Sex: WISTAR/MALE, Route: INHALATION, Dose: 0, 10 UG/M3 OF CADMIUM OXIDE FUME 22 HR/D 7 D/WK FOR 18 MO (STUDY DURATION: 31 MO)): inactive; negative; carcinogen call (Species: RAT, Strain/Sex: WISTAR/MALE, Route: INHALATION, Dose: 0, 30 UG/M3 CADMIUM OXIDE DUST 22 HR/D 7 D/WK FOR 18 MO (STUDY DURATION: 31 MO), Tumor Site: Type of Lesion: LUNG: ADENOMA OR ADENOCARCINOMA OR SQUAMOUS CELL TUMOR OR ADENOSQUAMOUS CARCINOMA): active; positive; carcinogen call (Species: RAT, Strain/Sex: WISTAR/MALE, Route: INHALATION, Dose: 0, 30 UG/M3 CADMIUM OXIDE DUST 22 HR/D 7 D/WK FOR 18 MO (STUDY DURATION: 31 MO), Tumor Site: Type of Lesion: LUNG: TUMOR): active; positive; carcinogen call (Species: RAT, Strain/Sex: WISTAR/MALE, Route: INHALATION, Dose: 0, 30 UG/M3 CADMIUM OXIDE DUST 22 HR/D 7 D/WK FOR 18 MO ADMINISTERED TO RATS MAINTAINED ON ZINC REDUCED (24 PPM) DIET (S, Tumor Site: Type of Lesion: LUNG: TUMOR): active; positive; carcinogen call (Species: RAT, Strain/Sex: WISTAR/MALE, Route: INHALATION, Dose: 0, 30 UG/M3 CADMIUM OXIDE FUME 22 HR/D 7 D/WK FOR 18 MO (STUDY DURATION: 31 MO), Tumor Site: Type of Lesion: LUNG: TUMOR): active; positive; carcinogen call (Species: RAT, Strain/Sex: WISTAR/MALE, Route: INHALATION, Dose: 0, 30 UG/M3 DUST 22 HR/D 7 D/WK FOR 18 MO (STUDY DURATION: 31 MO), Tumor Site: Type of Lesion: LUNG: ALVEOLAR/BRONCHIOLAR ADENOMA, ADENOCARCINOMA, SQUAMOUS CELL CARCINOMA): active; positive; carcinogen call (Species: RAT, Strain/Sex: WISTAR/MALE, Route: INHALATION, Dose: 0, 30 UG/M3 DUST 22 HR/D 7 D/WK FOR 18 MO MAINTAINED ON ZN REDUCED DIET (24 PPM) FOR STUDY DURATION (STUDY DURATION: 29, Tumor Site: Type of Lesion: LUNG: ALVEOLAR/BRONCHIOLAR ADENOMA, ADENOCARCINOMA, SQUAMOUS CELL CARCINOMA): active; positive; carcinogen call (Species: RAT, Strain/Sex: WISTAR/MALE, Route: INHALATION, Dose: 0, 30 UG/M3 FUME 22 HR/D 7 D/WK FOR 18 MO (STUDY DURATION: 31 MO), Tumor Site: Type of Lesion: LUNG: ALVEOLAR/BRONCHIOLAR ADENOMA, ADENOCARCINOMA): active; positive; carcinogen call (Species: RAT, Strain/Sex: WISTAR/MALE, Route: INHALATION, Dose: 0, 30 UG/M3 OF CADMIUM OXIDE DUST 22 HR/D 7 D/WK FOR 18 MO (STUDY DURATION: 29 MO), Tumor Site: Type of Lesion: LUNG: ALVEOLAR/BRONCHIOLAR ADENOMA, ADENOCARCINOMA): active; positive; carcinogen call (Species: RAT, Strain/Sex: WISTAR/MALE, Route: INHALATION, Dose: 0, 30 UG/M3 OF CADMIUM OXIDE DUST 22 HR/D 7 D/WK FOR 18 MO (STUDY DURATION: 31 MO), Tumor Site: Type of Lesion: LUNG: ALVEOLAR/BRONCHIOLAR ADENOMA, ADENOCARCINOMA, SQUAMOUS CELL CARCINOMA): active; positive; carcinogen call (Species: RAT, Strain/Sex: WISTAR/MALE, Route: INHALATION, Dose: 0, 30 UG/M3 OF CADMIUM OXIDE FUME 22 HR/D 7 D/WK FOR 18 MO (STUDY DURATION: 31 MO)): inactive; negative; carcinogen call (Species: RAT, Strain/Sex: WISTAR/MALE, Route: INHALATION, Dose: 0, 90 UG/M3, 8 HR/D, 5D/WK FOR 7.1 MO (STUDY DURATION: 7.1 MO)): inactive; negative; carcinogen call (Species: RAT, Strain/Sex: WISTAR/MALE, Route: INHALATION, Dose: 0, 90 UG/M3 CADMIUM OXIDE DUST 22 HR/D 7 D/WK FOR 7 MO (STUDY DURATION: 31 MO), Tumor Site: Type of Lesion: LUNG: ADENOMA OR ADENOCARCINOMA OR SQUAMOUS CELL TUMOR): active; positive; carcinogen call (Species: RAT, Strain/Sex: WISTAR/MALE, Route: INHALATION, Dose: 0, 90 UG/M3 CADMIUM OXIDE DUST 22 HR/D 7 D/WK FOR 7 MO (STUDY DURATION: 31 MO), Tumor Site: Type of Lesion: LUNG: TUMOR): active; positive; carcinogen call (Species: RAT, Strain/Sex: WISTAR/MALE, Route: INHALATION, Dose: 0, 90 UG/M3 CADMIUM OXIDE DUST DISCONTINOUS EXPOSURE FOR 40 HR/WK FOR 6 MO (STUDY DURATION: 31 MO), Tumor Site: Type of Lesion: LUNG: TUMOR): active; positive; carcinogen call (Species: RAT, Strain/Sex: WISTAR/MALE, Route: INHALATION, Dose: 0, 90 UG/M3 DUST 8 HR/D 5 D/WK FOR 6 MO (STUDY DURATION: 31 MO), Tumor Site: Type of Lesion: LUNG: ALVEOLAR/BRONCHIOLAR ADENOMA, ADENOCARCINOMA, SQUAMOUS CELL CARCINOMA): active; positive; carcinogen call (Species: RAT, Strain/Sex: WISTAR/MALE, Route: INHALATION, Dose: 0, 90 UG/M3 DUST 22 HR/D 7 D/WK FOR 7 MO (STUDY DURATION: 31 MO), Tumor Site: Type of Lesion: LUNG: ALVEOLAR/BRONCHIOLAR ADENOMA, ADENOCARCINOMA): active; positive; carcinogen call (Species: RAT, Strain/Sex: WISTAR/MALE, Route: INHALATION, Dose: 0, 90 UG/M3 OF CADMIUM OXIDE DUST 22 HR/D 7 D/WK FOR 7 MO (STUDY DURATION: 31 MO), Tumor Site: Type of Lesion: LUNG: ALVEOLAR/BRONCHIOLAR ADENOMA, ADENOCARCINOMA): active; positive; carcinogen call (Species: RAT, Strain/Sex: WISTAR/MALE, Route: INHALATION, Dose: 0, 90 UG/M3 OF CADMIUM OXIDE DUST 40 HR/WK FOR 6 MO (STUDY DURATION: 31 MO)): inactive; negative
